Assay results published in patent US9999659B2, “Treatments using a peptide and/or vaccine” (AFFIRIS AG, priority 2012, dated 2018).

Legend:
[1] = tested on: polyclonal antibodies specific for human PCSK9 aa 153-162 or aa 153-165; assay: Binding ELISA: mimotopes coated on plates, detected by mouse sera raised against the original PCSK9 sequence; conditions: mimotope coated at 1 μmol/mL; titer = serum dilution where 50% of ODmax is reached
Text: FIGS. 1A and 1B show detection of PCSK9 mimotopes sequences by mouse sera containing polyclonal antibodies specific for human PCSK9 aa 153-162 or aa 153-165
The graphs display median titers from all mimotopes compared to the irrelevant negative control. As a positive control the original human PCSK9 sequence is included: aa 153-162 or aa 153-165. Mimotopes with values over 1:50.000 are considered as good candidates.
Mimotopes were coated on ELISA plates at a concentration of 1 μmol/mL. After blocking unspecific binding (1% BSA in PBS) appropriate dilutions of sera from mice injected with the original human PCSK9 sequence aa 153-162 or aa 153-165 (SEQ ID No. 3) were added and incubated for approximately 1 hour. Subsequently, detection with anti-mouse IgG antibodies was performed. ABTS was used as substrate. OD measurements were performed at 405 nm and titers were defined as the dilution of the serum where 50% of the ODmax is reached.

[2] = tested on: polyclonal antibodies in mouse sera raised against original PCSK9 sequence (aa 153-162 or aa 153-165); assay: Competition ELISA: mimotope competes with the original PCSK9 sequence for binding of polyclonal antibodies in mouse sera; conditions: 20 μg peptide incubated with sera; irrelevant peptide = 0% competition
Text: FIGS. 2A and 2B show the ability of PCSK9 mimotopes to compete with the original PCSK9 sequence (aa 153-162 or aa 153-165) for binding polyclonal antibodies in mouse sera raised specifically against the latter.
All mimotopes are compared to the negative group (0% competition by an irrelevant peptide). As a positive control for each competition ELISA the original PCSK9 sequences were used (aa 153-162 or aa 153-165).
The graphs display the ability (in percent) of the mimotopes to compete with the original PCSK9 sequence (aa 153-162 or aa 153-165) for binding polyclonal antibodies raised against the latter.
20 μg of each indicated peptide was incubated with sera from mice injected with original PCSK9 sequence (aa 153-162 or aa 153-165: SEQ ID No. 2). Sera were then incubated on ELISA plates coated with the original PCSK9 sequence (aa 153-162 or aa 153-165: SEQ ID No. 2). Detection was performed with anti-mouse IgG antibodies, ABTS was used as a chromogenic substrate and optical density (OD) was measured at 405 nm.
Mimotopes diminishing >20% subsequent binding of the polyclonal antibodies from the sera to the original human PCSK9 epitope (aa 153-162 or 153-165: SEQ ID No. 3) coated on the ELISA plates were considered as competing mimotopes and as good candidates.

Substance	Median Titer Binding ELISA (ODmax/2) [1]	% Competition compared to the related control group [2]
50 (SIPWNLERITPPK; Artificial Sequence, Mimotope) [compound 50]	158,000	66%
51 (SIPWNLERITPPS; Artificial Sequence, Mimotope) [compound 51]	149,000	66%
52 (SIPWNLERITPPL; Artificial Sequence, Mimotope) [compound 52]	139,000	66%
53 (VIPWNLERLT; Artificial Sequence, Mimotope) [compound 53]	191,000	54%
54 (VIPWNLERTT; Artificial Sequence, Mimotope) [compound 54]	162,000	69%
55 (VIPWNLERIL; Artificial Sequence, Mimotope) [compound 55]	173,000	49%
56 (VIPWNLERIQ; Artificial Sequence, Mimotope) [compound 56]	166,000	47%
57 (SVPWNLERLT; Artificial Sequence, Mimotope) [compound 57]	154,000	57%
58 (SVPWNLERTT; Artificial Sequence, Mimotope) [compound 58]	116,000	73%
59 (SVPWNLERIL; Artificial Sequence, Mimotope) [compound 59]	188,000	59%
60 (SVPWNLERIQ; Artificial Sequence, Mimotope) [compound 60]	222,000	61%
61 (SQPWNLERLT; Artificial Sequence, Mimotope) [compound 61]	200,000	69%
62 (SQPWNLERIL; Artificial Sequence, Mimotope) [compound 62]	196,000	69%
63 (SQPWNLERIQ; Artificial Sequence, Mimotope) [compound 63]	167,000	66%
64 (SIPWSLERLT; Artificial Sequence, Mimotope) [compound 64]	164,000	46%
65 (SIPWSLERTT; Artificial Sequence, Mimotope) [compound 65]	147,000	64%
66 (SIPWSLERIL; Artificial Sequence, Mimotope) [compound 66]	199,000	46%
67 (SIPWSLERIQ; Artificial Sequence, Mimotope) [compound 67]	223,000	44%
68 (VQPWSLERTL; Artificial Sequence, Mimotope) [compound 68]	95,000	48%
69 (SQPWSLERTL; Artificial Sequence, Mimotope) [compound 69]	98,000	53%
70 (SVPWNLEKLT; Artificial Sequence, Mimotope) [compound 70]	47,000	11%
71 (VQPWNLERLQ; Artificial Sequence, Mimotope) [compound 71]	184,000	72%
